Experimental data published in patent US20100210518A1, “Peg-lipid conjugates for increasing the solubility of drug compounds” (priority 2009, published 2010).

Conditions: mouse, in vivo, 25 mg/kg, pH 6
Experimental: Experiments were performed to determine blood levels of Gefitinib formulations after both intravenous and oral dosing. […] Groups of three male mice (B6D2F1) were used for the studies. HPLC-MS analyses were performed on heparinized mouse plasma samples obtained typically at 0 hr, 0.08 hr, 0.5 hr, 1 hr, 2 hr, 4 hr, 7 hr, 16 hr and 24 hr after bolus IV injection. After oral feeding, the analyses were performed at 0 hr, 0.5 hr, 1 hr, 2 hr, 4 hr, 8 hr, 16 hr and 24 hr. To determine the level of each drug, the drug was first isolated from plasma with a sample pre-treatment. Acetonitrile were used to remove proteins in samples. An isocratic HPLC-MS/MS method was then used to separate the drugs from any potential interference. Drug levels were measured by MS detection with a multiple reaction monitoring (MRM) mode. PK data was analyzed using the WinNonlin program (ver. 5.2, Pharsight) compartmental models of analysis.
The drug was administered orally and the dosing strength was 25 mg/kg. The drug was also administered intravenously and the dosing strength was 25 mg/kg in 15% Cremophor EL® and in 10 mM sodium phosphate buffer (pH 6.0). The AUC (31.3) obtained from the IV administration was used for calculating the relative bioavailability (BA).

Substance: 3,4-Di(oleoyloxy)-decaethylene glycol-benzoate [DDGB]
- relative bioavailability (BA): 56.0%
